In patent US6106856A (The Board of Governors for Higher Education, State of Rhode …, priority 1995, dated 2000):

Legend:
[1] = Permeation through heat-separated human epidermis (Franz-diffusion cell); assay type: in vitro ADME
Procedure: (§1) […] of this solution was given on heat-separated human epidermis (breast, area 4.5 cm^2) which was mounted on a Franz-diffusion cell. The cell was filled with 23 ml of a mixture of 60 parts of a 0.9% NaCl-solution and 40 parts of polyethylene glycol 400 (v/v).

[2] = cited from earlier work
[3] = Recrystallization of applied saturated drug solution during the permeation experiment; assay type: physicochemical; conditions: applied crystal-free
Procedure: as §1

COC(=O)C1=C(C)NC(C)=C(C(=O)OC)C1c1ccccc1[N+](=O)[O-] [Nifedipine]
Flux ([1]; 8 h column): 0.35 μg/cm *h | Flux ([1]; 24 h column): 7.44 μg/cm *h | Flux ([1]; 32 h column): 6.13 μg/cm *h | Flux ([1]; 48 h column): 12.29 μg/cm *h | correlation of hypotensive and untoward side effects with plasma concentration ([2]; clinical studies): correlated with the plasma nifedipine concentration | variation of transient, high plasma levels ([2]; oral administration of conventional capsules): may vary by tenfold | interindividual variability of plasma levels ([2]; oral administration): Extraordinary interindividual variability | heart rate and blood pressure effect on rapid increase of plasma concentration ([2]; rapid increase of plasma nifedipine concentration): marked increase in heart rate and little effect on blood pressure

COCCOC(=O)C1=C(C)NC(C)=C(C(=O)OC(C)C)C1c1cccc([N+](=O)[O-])c1 (stereo not shown) [Nimodipine]
recrystallization during the experiment [3]: recrystallization

O=[N+]([O-])OCC(CO[N+](=O)[O-])O[N+](=O)[O-] [nitroglycerin]
tolerance observed in patients ([2]; transdermal nitroglycerin): tolerance observed in patients
